The values that follow are results of earlier work, collected in US20230193011A1, “COLOR CHANGING POLYMERIC RESIN COMPOSITIONS” (ECOLAB USA INC., priority 2021, published 2023).

Read-outs that look alike come from different tables or passages of the source.

For the data set the following is noted: for High pH color: color above the transition range; for Low pH color: color below the transition range; for pH start: pH at which the color change begins; for pH end: pH at which the color change ends.
Where [1] appears, read: listed as Malachite green - step 2.

Take `O=C(O)c1cc(N=Nc2ccc([N+](=O)[O-])cc2)ccc1O` [Alizarin yellow R]: the pKa is 11.2, the “High pH color” value was “red”, the “Low pH color” value is given as “yellow” and the pH start is 10.1. Also, the pH end is listed as 12.0.

Turning to `Cc1c(C2(c3cc(Br)c(O)c(Br)c3C)OS(=O)(=O)c3ccccc32)cc(Br)c(O)c1Br` [Bromocresol green], the pKa is 4.7, the “High pH color” value is on record as “blue”, the “Low pH color” value is listed as “yellow” and the pH start is 3.8. In addition, the pH end was 5.4.

On to `Cc1cc(C2(c3cc(C)c(O)c(Br)c3)OS(=O)(=O)c3ccccc32)cc(Br)c1O` [Bromocresol purple], for which the pKa is on record as 6.4, the “High pH color” value was “purple”, the “Low pH color” value is “yellow” and the pH start is 5.2. Moreover, the pH end is 6.8.

Regarding `O=S1(=O)OC(c2cc(Br)c(O)c(Br)c2)(c2cc(Br)c(O)c(Br)c2)c2ccccc21` [Bromophenol blue], the “High pH color” value is reported as “blue”, the “Low pH color” value is reported as “yellow”, the pH start is 3.0 and the pH end is listed as 4.6.

As for `Cc1c(C2(c3cc(C(C)C)c(O)c(Br)c3C)OS(=O)(=O)c3ccccc32)cc(C(C)C)c(O)c1Br` [Bromothymol blue], the “High pH color” value is “blue”, the “Low pH color” value is recorded as “yellow”, the pH start is reported as 6.0 and the pH end is 7.6.

Regarding `Nc1c(/N=N/c2ccc(-c3ccc(/N=N/c4cc(S(=O)(=O)O)c5ccccc5c4N)cc3)cc2)cc(S(=O)(=O)O)c2ccccc12` [Congo red], the “High pH color” value is on record as “red”, the “Low pH color” value is reported as “blue-violet”, the pH start is reported as 3.0 and the pH end is 5.0.

As to `Cc1cc(C2(c3ccc(O)c(C)c3)OS(=O)(=O)c3ccccc32)ccc1O` [Cresol red - step 1, Cresol red], the “High pH color” value is given as “yellow”, the “Low pH color” value is given as “red”, the pH start was 0.2 and the pH end is 1.8. Where the note is “listed as Cresol red - step 2”, the “High pH color” value is given as “reddish-”, the “Low pH color” value is on record as “yellow”, the pH start was 7.2 and the pH end was 8.8.

Take `Cc1cc(C2(c3ccc(O)c(C)c3)OC(=O)c3ccccc32)ccc1O` [Cresolphthalein]: the “High pH color” value is listed as “purple”, the “Low pH color” value was “colorless”, the pH start was 8.2 and the pH end was 9.8.

As for `O=C1/C(=C2\Nc3ccc(S(=O)(=O)[O-])cc3C2=O)Nc2ccc(S(=O)(=O)[O-])cc21.[Na+].[Na+]` [Indigo carmine], the “High pH color” value is “yellow”, the “Low pH color” value is “blue”, the pH start is 11.4 and the pH end was 13.0.

For `CN(C)c1ccc(C(=C2C=CC(=[N+](C)C)C=C2)c2ccccc2)cc1` [Malachite green - step 1, Malachite green], the “High pH color” value is “green”, the “Low pH color” value is recorded as “yellow”, the pH start is reported as 0.2 and the pH end was 1.8. Also, under setting [1], the “High pH color” value is listed as “colorless”, the “Low pH color” value is listed as “green”, the pH start is 11.5 and the pH end is given as 13.2.

In the case of `CN(C)c1ccc(N=Nc2ccc(S(=O)(=O)[O-])cc2)cc1.[Na+]` [Methyl orange], the pKa is listed as 3.5, the “High pH color” value was “yellow”, the “Low pH color” value is given as “red” and the pH start is on record as 3.1. Also, the pH end is 4.4.

For `CN(C)c1ccc(/N=N/c2ccccc2C(=O)O)cc1` [Methyl red], the pKa is listed as 5.1, the “High pH color” value was “yellow”, the “Low pH color” value is “red” and the pH start was 4.4. Also, the pH end was 6.2.

Consider `CN(C)c1ccc(N=Nc2ccccc2)cc1` [Methyl yellow], for which the pKa is 3.3, the “High pH color” value is “yellow”, the “Low pH color” value was “red” and the pH start is on record as 2.9. The pH end is on record as 4.0.

Consider `O=C1OC(c2ccc(O)c3ccccc23)(c2ccc(O)c3ccccc23)c2ccccc21` [Naphtholphthalein], for which the “High pH color” value was “greenish-”, the “Low pH color” value is given as “pale red”, the pH start is listed as 7.3 and the pH end is recorded as 8.7.

Regarding `Cc1cc2nc3ccc(N(C)C)cc3nc2cc1N.Cl` [Neutral red], the “High pH color” value is reported as “yellow”, the “Low pH color” value is “red”, the pH start is 6.8 and the pH end is 8.0.

For the molecule `O=C1OC(c2ccc(O)cc2)(c2ccc(O)cc2)c2ccccc21` [Phenolphthalein], the pKa was 9.5, the “High pH color” value is “red-pink”, the “Low pH color” value is listed as “colorless” and the pH start is given as 8.3. In addition, the pH end is 10.0.

In the case of `Cc1cc(O)c(C(C)C)cc1C1(c2cc(C(C)C)c(O)cc2C)OS(=O)(=O)c2ccccc21` [Thymol blue - step 1, Thymol blue], the pKa is listed as 1.7, the “High pH color” value is “yellow”, the “Low pH color” value was “red” and the pH start is on record as 1.2. Also, the pH end is given as 2.8. Further, under “listed as Thymol blue - step 2”, the “High pH color” value is “blue”, the “Low pH color” value is listed as “yellow”, the pKa is 9.2 and the pH start was 8.0. In addition, the pH end (listed as Thymol blue - step 2) is recorded as 9.6.

Turning to `Cc1cc(O)c(C(C)C)cc1C1(c2cc(C(C)C)c(O)cc2C)OC(=O)c2ccccc21` [Thymolphthalein], the pKa is given as 9.2, the “High pH color” value is listed as “blue”, the “Low pH color” value is listed as “colorless” and the pH start is 9.0. In addition, the pH end was 10.5.

On to Azolitmin [Azolitmin (litmus)], for which the “High pH color” value is recorded as “blue”, the “Low pH color” value is recorded as “red”, the pH start is 4.5 and the pH end is listed as 8.3.

Regarding Methyl purple, the “High pH color” value is given as “green”, the “Low pH color” value is “purple”, the pH start is on record as 4.8 and the pH end was 5.4.
